In brackets after ≈: the same amount, converted by molar mass. Values belong to the compound of their own block, whether it stands above or below them. Activity calls are given as the source filed them. No cut-off for these calls is given here.
Key:
[1] = molecular target: T1, Sodium-dependent phosphate transport protein 2B (Homo sapiens, UniProt O95436); assay: Inhibition of human NaPi2b expressed in CHO-K1 cells assessed as reduction in [33P] uptake preincubated with compound for 30 mins followed by [33P]O4 addition and measured after 30 mins by TopCount liquid scintillation counting method; type: cell-based
T1 sequence (O95436 whole entry): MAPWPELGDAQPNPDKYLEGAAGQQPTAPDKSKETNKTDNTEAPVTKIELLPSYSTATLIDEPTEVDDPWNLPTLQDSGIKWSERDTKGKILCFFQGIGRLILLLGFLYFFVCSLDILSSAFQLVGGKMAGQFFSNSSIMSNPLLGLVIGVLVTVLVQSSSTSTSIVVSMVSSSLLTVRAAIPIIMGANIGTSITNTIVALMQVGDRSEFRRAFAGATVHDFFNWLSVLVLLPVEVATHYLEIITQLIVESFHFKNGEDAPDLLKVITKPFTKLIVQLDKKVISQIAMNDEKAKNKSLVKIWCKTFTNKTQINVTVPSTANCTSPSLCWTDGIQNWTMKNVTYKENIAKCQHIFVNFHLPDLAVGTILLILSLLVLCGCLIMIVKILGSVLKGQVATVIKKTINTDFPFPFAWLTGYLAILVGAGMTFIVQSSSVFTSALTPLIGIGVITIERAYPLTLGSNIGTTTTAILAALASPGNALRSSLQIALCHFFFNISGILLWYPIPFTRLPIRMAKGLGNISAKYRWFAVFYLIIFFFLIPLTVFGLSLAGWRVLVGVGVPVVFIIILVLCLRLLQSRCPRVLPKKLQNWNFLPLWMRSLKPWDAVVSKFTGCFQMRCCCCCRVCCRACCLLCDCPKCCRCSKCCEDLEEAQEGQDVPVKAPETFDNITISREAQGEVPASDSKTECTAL

[2] = molecular target: T2, Sodium-dependent phosphate transport protein 2B (Homo sapiens) (UniProt O95436); assay: Inhibition of human NaPi2b at 1 uM relative to control
T2 sequence (whole entry): T1 sequence (O95436 whole entry)

[3] = Cmax in Sprague-Dawley rat at 10 mg/kg, po administered as single dose by LC-MS analysis; type: ADME, organism-based; set-up: dose 10 mg/kg, route po; settings: in vivo
[4] = AUC (0 to t) in Sprague-Dawley rat at 1 mg/kg, iv administered as single dose by LC-MS analysis; type: ADME, organism-based; set-up: dose 1 mg/kg, route iv; settings: in vivo
[5] = molecular target: T3, Sodium-dependent phosphate transport protein 2B (Rattus norvegicus, UniProt Q9JJ09); assay: Inhibition of rat NaPi2b expressed in CHO-K1 cells assessed as reduction in [33P] uptake preincubated with compound for 30 mins followed by [33P]O4 addition and measured after 10 mins by TopCount liquid scintillation counting method; type: cell-based
T3 sequence (Q9JJ09 whole entry): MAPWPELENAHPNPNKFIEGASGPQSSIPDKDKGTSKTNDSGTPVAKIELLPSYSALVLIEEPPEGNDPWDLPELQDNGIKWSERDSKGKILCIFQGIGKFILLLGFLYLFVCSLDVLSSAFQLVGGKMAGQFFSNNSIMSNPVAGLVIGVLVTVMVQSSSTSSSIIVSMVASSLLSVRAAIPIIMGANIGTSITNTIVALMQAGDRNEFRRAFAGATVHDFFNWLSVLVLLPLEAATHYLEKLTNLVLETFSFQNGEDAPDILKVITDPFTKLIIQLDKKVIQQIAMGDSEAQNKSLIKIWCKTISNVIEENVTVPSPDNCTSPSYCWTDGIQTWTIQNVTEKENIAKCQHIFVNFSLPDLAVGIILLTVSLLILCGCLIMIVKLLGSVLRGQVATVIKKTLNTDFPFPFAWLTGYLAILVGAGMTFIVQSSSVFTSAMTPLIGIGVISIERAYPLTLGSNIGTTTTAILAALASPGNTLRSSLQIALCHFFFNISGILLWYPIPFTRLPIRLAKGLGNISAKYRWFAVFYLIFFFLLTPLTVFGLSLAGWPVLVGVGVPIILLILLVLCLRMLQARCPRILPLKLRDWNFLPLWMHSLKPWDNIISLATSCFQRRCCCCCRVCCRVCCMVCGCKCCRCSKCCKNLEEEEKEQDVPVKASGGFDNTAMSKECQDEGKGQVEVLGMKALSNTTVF

[6] = AUC (0 to t) in Sprague-Dawley rat at 10 mg/kg, po administered as single dose by LC-MS analysis; type: ADME, organism-based; set-up: dose 10 mg/kg, route po; settings: in vivo
[7] = Solubility of the compound in fed state simulated intestinal fluid at pH 5.0 incubated for 24 hrs by HPLC analysis; type: physicochemical
[8] = Drug excretion in Sprague-Dawley rat feces assessed as cumulative amount of unchanged drug excreted at 10 mg/kg, po administered as single dose and measured within 24 hrs by LC-MS analysis; type: ADME, organism-based; settings: faeces, read-out: Ae
[9] = Solubility of the compound in fasted state simulated intestinal fluid at pH 6.5 incubated for 24 hrs by HPLC analysis; type: physicochemical
[10] = Oral bioavailability in Sprague-Dawley rat at 10 mg/kg administered as single dose by LC-MS analysis; type: ADME, organism-based; settings: in vivo
[11] = Drug concentration in Sprague-Dawley rat intestine at 10 mg/kg, po administered as single dose; type: ADME, organism-based; settings: in vivo
[12] = molecular target: T1, Sodium-dependent phosphate transport protein 2B; assay: Inhibition of NaPi2b (unknown origin)
[13] = AUC (0 to t) in Sprague-Dawley rat at 1.17 mg/kg, iv administered as single dose by LC-MS analysis; type: ADME, organism-based; set-up: dose 1.17 mg/kg, route iv; settings: in vivo
Rattus norvegicus = assay: In vivo inhibition of NaPi2b in Sprague-Dawley rat assessed as reduction in phosphate absorption at 10 mg/kg, po preincubated for 5 mins followed by addition of NaH2PO4 containing 32P-phosphate solution and measured after 15 to 30 mins by liquid scintillation counting method; type: functional, organism-based; settings: time 20.0 min

IC50 [1]: 0.369 µM
Structure (SMILES): CCC(CC)N(CCN(C)C(=O)NCC(=O)O)Cc1cccc(C(=O)Nc2[nH]c3ccccc3c2C(=O)Nc2ccc(CCCc3ccc(C(=O)O)cc3)cc2)c1

IC50 [1]: 1.02 µM
Structure (SMILES): CN(C(=O)CCC(=O)O)C1CCN(Cc2cccc(C(=O)Nc3[nH]c4ccccc4c3C(=O)Nc3ccc(CCCc4ccc(C(=O)O)cc4)cc3)c2)C1 (stereo not given)

IC50 [1]: 0.078 µM
Structure (SMILES): CCCC(CCC)N(CCN(C)C(=O)CCC(=O)O)Cc1cccc(C(=O)Nc2[nH]c3ccccc3c2C(=O)Nc2ccc(CCCc3ccc(C(=O)O)cc3)cc2)c1

inhibition [2]: 87%
Structure (SMILES): CCC(CC)N(CCN(C)C(=O)CCC(=O)O)Cc1cccc(C(=O)Nc2sc3c(c2C(=O)Nc2ccc(CCc4ccc(C(=O)O)cc4)cc2)CCCC3)c1

IC50 [1]: 0.356 µM
Structure (SMILES): CC(C)N(CCN(C)C(=O)CCC(=O)O)Cc1cccc(C(=O)Nc2[nH]c3ccccc3c2C(=O)Nc2ccc(CCCc3ccc(C(=O)O)cc3)cc2)c1

IC50 [1]: 2.58 µM
Structure (SMILES): CN(Cc1cccc(C(=O)Nc2[nH]c3ccccc3c2C(=O)Nc2ccc(CCCc3ccc(C(=O)O)cc3)cc2)c1)C1CCN(C(=O)CCC(=O)O)C1 (stereo not given)

Cmax [3]: 568 ng/mL
AUC(0-t) [4]: 834 ng·h/mL
IC50 [5]: 0.028 µM
AUC(0-t) [6]: 1090 ng·h/mL
IC50 [1]: 0.071 µM
solubility at 24 h [7]: 264 µg/mL (≈ 341 µM)
solubility at 24 h [9]: 103 µg/mL (≈ 133 µM)
bioavailability [10]: 13.1%
Ct [11]: 39 µg/mL
Structure (SMILES): CCC(CC)N(CCN(C)C(=O)CCC(=O)O)Cc1cccc(C(=O)Nc2[nH]c3ccccc3c2C(=O)Nc2ccc(CCCc3ccc(C(=O)O)cc3)cc2)c1
dose excreted at 24 h [8]: 68.1%

IC50 [1]: 0.401 µM
Structure (SMILES): CCC(CC)N(CCN(C)C(=O)CN1C(=O)NC2NC(=O)NC21)Cc1cccc(C(=O)Nc2[nH]c3ccccc3c2C(=O)Nc2ccc(CCCc3ccc(C(=O)O)cc3)cc2)c1 (stereo not given)

IC50 [1]: 0.538 µM
Structure (SMILES): CCC(CC)N(CCN(C)C(=O)CCC(=O)O)Cc1cccc(C(=O)Nc2[nH]c3ccccc3c2C(=O)Nc2ccccc2)c1

IC50 [12]: 1 µM
Structure (SMILES): CCN(CC)c1ccc(NC(=O)c2cccc(CSCCOCCOCCOCCOCCOCCOCCOCCOCCC(=O)O)c2)c(-c2cc(C(=O)NCc3cccc(C(F)(F)F)c3)ccn2)c1

IC50 [1]: 0.257 µM
Structure (SMILES): CCN([C@H]1CC[C@H](C(=O)O)CC1)S(=O)(=O)c1cccc(C(=O)Nc2[nH]c3ccccc3c2C(=O)Nc2ccc(CCCc3ccc(C(=O)O)cc3)cc2)c1

IC50 [1]: 0.535 µM
Structure (SMILES): CCC(CC)N(CCN(C)C(=O)CCC(=O)NCCOCCOCCOCCC(=O)O)Cc1cccc(C(=O)Nc2[nH]c3ccccc3c2C(=O)Nc2ccc(CCCc3ccc(C(=O)O)cc3)cc2)c1

Cmax [3]: 15.5 ng/mL
IC50 [5]: 0.098 µM
AUC(0-t) [6]: 15.4 ng·h/mL
IC50 [1]: 0.166 µM
solubility at 24 h [7]: > 479 µg/mL
AUC(0-t) [13]: 170 ng·h/mL
solubility at 24 h [9]: > 482 µg/mL
bioavailability [10]: 1.1%
Ct [11]: 34 µg/mL
Structure (SMILES): CCC(CC)N(CCN(C)C(=O)CCC(=O)NCCOCCOCCOCCO)Cc1cccc(C(=O)Nc2[nH]c3ccccc3c2C(=O)Nc2ccc(CCCc3ccc(C(=O)O)cc3)cc2)c1
dose excreted at 24 h [8]: 58.8%
inhibition (Rattus norvegicus): Active

IC50 [1]: 0.401 µM
Structure (SMILES): CCC(CC)N(CCN(C)C(=O)CNS(=O)(=O)c1c[nH]c(C(N)=O)c1)Cc1cccc(C(=O)Nc2[nH]c3ccccc3c2C(=O)Nc2ccc(CCCc3ccc(C(=O)O)cc3)cc2)c1

IC50 [1]: 0.267 µM
Structure (SMILES): CCC(CC)N(CCN(C)S(=O)(=O)NC(=O)OCC(=O)O)Cc1cccc(C(=O)Nc2[nH]c3ccccc3c2C(=O)Nc2ccc(CCCc3ccc(C(=O)O)cc3)cc2)c1

IC50 [1]: 0.448 µM
Structure (SMILES): CCC(CC)N(CCN(C)C(=O)CCC(=O)O)Cc1cccc(C(=O)Nc2[nH]c3ccccc3c2C(=O)Nc2ccc(Cc3ccc(C(=O)O)cc3)cc2)c1

Source: ChEMBL document CHEMBL5120876, “Design, synthesis and biological evaluation of novel indole derivatives as gut-selective NaPi2b inhibitors” (Bioorg Med Chem, 2022)
